Measured values taken from PubChem BioAssay AID330 (DTP/NCI, 2004).
Several values for one entry are separate records, joined by “and”; a condition that tells them apart may be missing. Equal values may be shown once. Toxic doses and inconclusive results are not listed. The calls were made as follows: active = survival T/C of 150% or more; inactive = T/C below 125% in these data.

System: P388 leukemia ip, CD2F1 mice, survival T/C
Test: NCI In Vivo Anticancer Drug Screen. Data for tumor model P388 Leukemia (intraperitoneal) in CD2F1 (CDF1) mice
Settings: endpoint: median survival time, higher = longer survival
Procedure, shortened: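 Mice carrying the transplanted tumor received test compound or vehicle. Survival was recorded in each group, and the value is the treated-group measurement divided by that of the vehicle-treated control group.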

[1] = dose: 50.0 mg/kg/injection, schedule: Q01DX009 (ip), vehicle: saline with Tween-80
[2] = dose: 100.0 mg/kg/injection, schedule: Q01DX009 (ip), vehicle: saline with Tween-80
[3] = dose: 200.0 mg/kg/injection, schedule: Q01DX009 (ip), vehicle: saline with Tween-80
[4] = dose: 60.0 mg/kg/injection, schedule: Q01DX005 (ip), vehicle: saline with Tween-80
[5] = dose: 120.0 mg/kg/injection, schedule: Q01DX005 (ip), vehicle: saline with Tween-80
[6] = dose: 240.0 mg/kg/injection, schedule: Q01DX005 (ip), vehicle: saline with Tween-80
[7] = dose: 50.0 mg/kg/injection, schedule: Q01DX005 (ip), vehicle: Klucel (hydroxypropylcellulose) (HPC)
[8] = dose: 100.0 mg/kg/injection, schedule: Q01DX005 (ip), vehicle: Klucel (hydroxypropylcellulose) (HPC)
[9] = dose: 200.0 mg/kg/injection, schedule: Q01DX005 (ip), vehicle: Klucel (hydroxypropylcellulose) (HPC)
[10] = dose: 12.5 mg/kg/injection, schedule: Q01DX009 (ip), vehicle: saline with Tween-80
[11] = dose: 25.0 mg/kg/injection, schedule: Q01DX009 (ip), vehicle: saline with Tween-80

Measured: T/C

CC1(C)CCCc2c(-c3ccccc3)cc3c4[nH]c5ccccc5c4cc[n+]3c21
inactive: [1] 99 % of control | [2] 99 % of control | [3] 101 % of control

COc1cc(Br)c(CC(NC=O)c2ccc(OC)c(OC)c2OC)cc1OC (stereo not drawn)
inactive: [4] 107 % of control | [5] 100 % of control | [6] 100 % of control

Cc1noc(/N=N/N(C)c2ccccc2)c1C
inactive: [1] 103 % of control | [2] 96 % of control

CCN(Cc1cccc(S(=O)(=O)O)c1)c1ccc(C(=C2C=CC(=[N+](CC)Cc3cccc(S(=O)(=O)O)c3)C=C2)c2ccc(O)c(S(=O)(=O)O)c2)cc1
inactive: dose: 50.0 mg/kg/injection, schedule: Q01DX005 (ip), vehicle: saline with Tween-80 97 % of control | dose: 100.0 mg/kg/injection, schedule: Q01DX005 (ip), vehicle: saline with Tween-80 99 % of control | dose: 200.0 mg/kg/injection, schedule: Q01DX005 (ip), vehicle: saline with Tween-80 100 % of control

Nc1cccc(C(=O)Nc2ccc3c(O)c(N=Nc4ccccc4)c(S(=O)(=O)O)cc3c2)c1
inactive: [7] 103 % of control | [8] 107 % of control | [9] 103 % of control

COC(=O)c1cc2cccn2cn1
inactive: [10] 115 % of control | [11] 115 % of control | [1] 104 % of control | [2] 91 % of control | [3] 100 % of control

COC1N(Cc2ccccc2)C=C2C(=O)NC(=O)C3NC(c4ccccc4)C1(C)C23C (stereo not drawn)
inactive: [7] 90 % of control | [8] 91 % of control | [9] 88 % of control and 92 % of control

O=[N+]([O-])c1cnc(-c2ccc(F)cc2)n1CCO
inactive: [1] 100 % of control | [2] 105 % of control | [3] 112 % of control

Cc1cc(C)cc(NCCC#N)c1
inactive: dose: 100.0 mg/kg/injection, schedule: Q04DX003 (ip), vehicle: other 109 % of control | dose: 200.0 mg/kg/injection, schedule: Q04DX003 (ip), vehicle: other 109 % of control

CC1CCCCN1CC(C)(C)C (stereo not drawn)
inactive: dose: 60.0 mg/kg/injection, schedule: Q01DX005 (ip), vehicle: Klucel (hydroxypropylcellulose) (HPC) 100 % of control | dose: 120.0 mg/kg/injection, schedule: Q01DX005 (ip), vehicle: Klucel (hydroxypropylcellulose) (HPC) 93 % of control

O=C(O)CC(Sc1ccc(Cl)cc1)C(=O)Nc1ccccc1 (stereo not drawn)
inactive: [4] 99 % of control | [5] 95 % of control | [6] 98 % of control

O=C(CCl)NC(Cc1ccc(O)cc1)C(=O)O (stereo not drawn)
inactive: [11] 104 % of control | [1] 99 % of control | [2] 101 % of control and 105 % of control | [3] 94 % of control | dose: 400.0 mg/kg/injection, schedule: Q01DX009 (ip), vehicle: saline with Tween-80 114 % of control

COc1ccc(CCN2C(=O)CCC3=C2CCCC3=O)cc1OC
inactive: dose: 25.0 mg/kg/injection, schedule: Q01DX005 (ip), vehicle: Klucel (hydroxypropylcellulose) (HPC) 102 % of control | [7] 100 % of control | [8] 102 % of control | [9] 100 % of control

CNC(=O)OCc1c(C)sc(-c2ccccc2)c1COC(=O)NC
inactive: dose: 12.5 mg/kg/injection, schedule: Q01DX005 (ip), vehicle: distilled water + Tween-80 93 % of control | dose: 25.0 mg/kg/injection, schedule: Q01DX005 (ip), vehicle: distilled water + Tween-80 95 % of control | dose: 50.0 mg/kg/injection, schedule: Q01DX005 (ip), vehicle: distilled water + Tween-80 98 % of control | dose: 100.0 mg/kg/injection, schedule: Q01DX005 (ip), vehicle: distilled water + Tween-80 86 % of control

CC(C)(C)CC(C)(C)NCC(O)COc1ccc(C(C)(C)c2ccc(OCC(O)CNC(C)(C)CC(C)(C)C)cc2)cc1 (stereo not drawn)
inactive: dose: 3.13 mg/kg/injection, schedule: Q01DX009 (ip), vehicle: other 104 % of control | dose: 3.13 mg/kg/injection, schedule: Q04DX003 (ip), vehicle: other 108 % of control | dose: 6.25 mg/kg/injection, schedule: Q01DX009 (ip), vehicle: other 90 % of control | dose: 6.25 mg/kg/injection, schedule: Q04DX003 (ip), vehicle: other 100 % of control

O=C1SC(Nc2cccc([N+](=O)[O-])c2)/C(=N\N=C2/C(Nc3cccc([N+](=O)[O-])c3)SC(=O)N2Cc2ccccc2)N1Cc1ccccc1 (stereo not drawn)
inactive: [7] 92 % of control | [8] 87 % of control

c1cnc2n[se]nc2c1
inactive: dose: 6.25 mg/kg/injection, schedule: Q04DX002 (ip), vehicle: saline 113 % of control | dose: 12.5 mg/kg/injection, schedule: Q04DX002 (ip), vehicle: saline 97 % of control

COC(=O)Cn1/c(=N\N=C(/C)c2ccc([N+](=O)[O-])cc2)sc2ccccc21
inactive: dose: 12.5 mg/kg/injection, schedule: Q01DX001 (ip), vehicle: saline with Tween-80 92 % of control | dose: 25.0 mg/kg/injection, schedule: Q01DX001 (ip), vehicle: saline with Tween-80 89 % of control | dose: 50.0 mg/kg/injection, schedule: Q01DX001 (ip), vehicle: saline with Tween-80 89 % of control | dose: 400.0 mg/kg/injection, schedule: Q01DX001 (ip), vehicle: saline with Tween-80 88 % of control

O=C(NC(Cc1ccsc1)C(=O)O)c1ccccc1 (stereo not drawn)
inactive: dose: 25.0 mg/kg/injection, schedule: Q01DX009 (ip), vehicle: other 102 % of control | dose: 50.0 mg/kg/injection, schedule: Q01DX009 (ip), vehicle: other 104 % of control | dose: 100.0 mg/kg/injection, schedule: Q01DX009 (ip), vehicle: other 98 % of control

CCCCCC(CN(C)C)C(=O)/C=C/c1ccccc1Cl (stereo not drawn)
inactive: dose: 6.25 mg/kg/injection, schedule: Q01DX009 (ip), vehicle: saline 104 % of control | dose: 12.5 mg/kg/injection, schedule: Q01DX009 (ip), vehicle: saline 102 % of control | dose: 25.0 mg/kg/injection, schedule: Q01DX009 (ip), vehicle: saline 93 % of control | dose: 50.0 mg/kg/injection, schedule: Q01DX009 (ip), vehicle: saline 101 % of control

N#Cc1sc(SCC(=O)O)c(-[n+]2ccccc2)c1N
inactive: dose: 25.0 mg/kg/injection, schedule: Q04DX002 (ip), vehicle: saline with Tween-80 95 % of control | dose: 50.0 mg/kg/injection, schedule: Q04DX002 (ip), vehicle: saline with Tween-80 104 % of control | dose: 100.0 mg/kg/injection, schedule: Q04DX002 (ip), vehicle: saline with Tween-80 99 % of control

FC(F)(F)c1cccc(N=c2ccn3ccccc3c2)c1
inactive: [10] 103 % of control | [11] 96 % of control | [1] 91 % of control and 94 % of control

N#C[C@H]1C[C@@H](c2ccccc2)N(c2ccccc2)O1
inactive: dose: 50.0 mg/kg/injection, schedule: Q01DX005 (ip), vehicle: saline + Tween-80 + alcohol 98 % of control | dose: 100.0 mg/kg/injection, schedule: Q01DX005 (ip), vehicle: saline + Tween-80 + alcohol 100 % of control | dose: 200.0 mg/kg/injection, schedule: Q01DX005 (ip), vehicle: saline + Tween-80 + alcohol 100 % of control

Cn1c2ccccc2c(=O)c2c(O)cc3c(c21)C=CC(C)(C)O3
inactive: dose: 0.38 mg/kg/injection, schedule: Q01DX009 (ip), vehicle: Klucel (hydroxypropylcellulose) (HPC) 107 % of control | dose: 0.38 mg/kg/injection, schedule: Q01DX009 (ip), vehicle: saline with Tween-80 95 % of control | dose: 0.75 mg/kg/injection, schedule: Q01DX009 (ip), vehicle: Klucel (hydroxypropylcellulose) (HPC) 102 % of control and 97 % of control | dose: 0.75 mg/kg/injection, schedule: Q01DX009 (ip), vehicle: saline with Tween-80 98 % of control | dose: 1.5 mg/kg/injection, schedule: Q01DX009 (ip), vehicle: Klucel (hydroxypropylcellulose) (HPC) 99 % of control and 103 % of control | dose: 1.5 mg/kg/injection, schedule: Q01DX009 (ip), vehicle: saline with Tween-80 94 % of control | dose: 1.56 mg/kg/injection, schedule: Q01DX009 (ip), vehicle: Klucel (hydroxypropylcellulose) (HPC) 124 % of control | dose: 3.0 mg/kg/injection, schedule: Q01DX009 (ip), vehicle: Klucel (hydroxypropylcellulose) (HPC) 102 % of control and 103 % of control | dose: 3.0 mg/kg/injection, schedule: Q01DX009 (ip), vehicle: saline with Tween-80 94 % of control | dose: 3.12 mg/kg/injection, schedule: Q01DX009 (ip), vehicle: Klucel (hydroxypropylcellulose) (HPC) 101 % of control | dose: 6.25 mg/kg/injection, schedule: Q01DX009 (ip), vehicle: Klucel (hydroxypropylcellulose) (HPC) 102 % of control | dose: 12.5 mg/kg/injection, schedule: Q01DX009 (ip), vehicle: Klucel (hydroxypropylcellulose) (HPC) 100 % of control

Oc1ccc2c(c1O)/C(=C/C=NCC1(O)OCC(O)C(O)C1O)C=N2 (stereo not drawn)
inactive: dose: 60.0 mg/kg/injection, schedule: Q01DX005 (ip), vehicle: saline 101 % of control | dose: 120.0 mg/kg/injection, schedule: Q01DX005 (ip), vehicle: saline 98 % of control | dose: 240.0 mg/kg/injection, schedule: Q01DX005 (ip), vehicle: saline 101 % of control
